Data reported in US11390631B1, “Benzodiazepine derivatives as RSV inhibitors” (priority 2015, dated 2022).
Read-outs that look alike come from different tables or passages of the source.

How the values were obtained:
[1] = Cytotoxicity on parallel plate without virus, ATPlite readout; type: cell-based; details: human, Hep-2 cells (no virus), Hep-2 cells without virus, 5-day incubation
Experimental: Following extensive parameter testing, the final assay is run as follows: Hep-2 cells are seeded into the inner 60 wells of a 96-well plate at 8,000 cells per well in a volume of 50 μL using Growth Media (DMEM without phenol red, 1% L-Glut, 1% Penn/Strep, 1% nonessential amino acids, 10% heat-inactivated FBS). 2-fold serial dilutions of control and test compounds are added to the wells in duplicate in a total volume of 25 μL. Viral stock is then added to the wells at a multiplicity of infection (MOI) of 0.1 in a volume of 25 μL, bringing the total volume of each well to 100 μL. The MOI is calculated using the PFU/mL, or TCID50 if unavailable. Each 96-well plate has a control column of 6 wells with cells and virus but no compound (negative control, max CPE), a column with cells but no compound or virus (positive control, minimum CPE), and a column with no cells or virus or compound (background plate/reagent control). The control wells with cells but no virus are given an additional 25 uL of growth media containing an equal quantity of sucrose as those wells receiving the viral stock in order to keep consistent in media and volume conditions. The outer wells of the plate are filled with 125 μL of moat media (DMEM, 1% Penn/Strep) to act as a thermal and evaporative moat around the test wells. Following a 5-day incubation period, the plates are read using ATPlite (50 uL added per well), which quantifies the amount of ATP (a measure of cell health) present in each well. Assay plates are read using the Envision luminometer. In parallel, cytotoxicity is examined on an additional 96-well plate treated in an identical manner, but substituting the 25 μL of viral stock for 25 μL of growth media. […] EC50 ranges are as follows: A<0.4 μM; B 0.4-0.8 μM; C>0.8 μM and CC50 ranges are as follows: A>50 μM; B 10-50 μM; C<10 μM.

[2] = test system: Human RSV-A (“Long” strain); test: RSV-A assay: inhibition of cytopathic effect in Hep-2 cells, ATPlite readout; type: cell-based, Human respiratory syncytial virus (HRSV); details: read-out: Human RSV-A (“Long” strain) EC50
Summary of the method: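 Hep-2 cells (8,000/well) were infected with RSV-A Long at MOI 0.1 alongside duplicate 2-fold compound dilutions. After 5 days, cell viability was read by ATPlite luminescence to give EC50. CC50 came from a parallel plate without virus.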

[3] = human respiratory syncytial virus, HEp-2, 120 h
[4] = Hep-2 cells, MOI 0.1, 5-day incubation, ATPlite

| SMILES | CC50 at 5 days [1] [nM] | EC50 [2, 3] [nM] | EC50 [2, 4] [nM] |
| --- | --- | --- | --- |
| COCCOc1cccc(-c2nnc(NC3N=C(c4ccccc4)c4ccccc4NC3=O)o2)c1 (centres unmarked) [Example 1] | > 50000 | > 800 |  |
| O=C1Nc2ccccc2C(c2ccccc2)=NC1Nc1nnc(-c2ccccc2)o1 (centres unmarked) [Example 2] | > 50000 | > 800 |  |
| O=C1Nc2ccccc2C(c2ccccc2)=NC1Nc1nnc(-c2cccc(F)c2)o1 (centres unmarked) [Example 3] | > 50000 | > 800 |  |
| COc1cccc(-c2nnc(NC3N=C(c4ccccc4)c4ccccc4NC3=O)o2)c1 (centres unmarked) [Example 4] | > 50000 | > 800 |  |
| O=C1Nc2ccccc2C(c2ccccc2)=NC1Nc1nnc(C2CC2)o1 (centres unmarked) [Example 5] | > 50000 | > 800 |  |
| O=C1Nc2ccccc2C(c2ccccc2)=NC1Nc1nnc(-c2ccccc2F)o1 (centres unmarked) [Example 6] | > 50000 | > 800 |  |
| O=C1Nc2ccccc2C(c2ccccc2)=N[C@H]1Nc1nnc(-c2ccc(F)cc2)o1 [Example 7b] | 10000 to 50000 | > 800 |  |
| COc1ccc(-c2nnc(NC3N=C(c4ccccc4)c4ccccc4NC3=O)o2)cc1 (centres unmarked) [Example 8] | > 50000 | > 800 |  |
| COc1ccccc1-c1nnc(NC2N=C(c3ccccc3)c3ccccc3NC2=O)o1 (centres unmarked) [Example 9] | > 50000 | > 800 |  |
| O=C1Nc2ccccc2C(c2ccccc2)=N[C@@H]1Nc1nnc(-c2ccco2)o1 [Example 10a] | > 50000 | 400 to 800 |  |
| O=C1Nc2ccccc2C(c2ccccc2)=N[C@H]1Nc1nnc(-c2ccco2)o1 [Example 10b] | < 10000 | > 800 |  |
| O=C1Nc2ccccc2C(c2ccccc2)=NC1Nc1nnc(-c2ccccn2)o1 (centres unmarked) [Example 11] | > 50000 | 400 to 800 |  |
| N#Cc1ccc(-c2nnc(NC3N=C(c4ccccc4)c4ccccc4NC3=O)o2)cc1 (centres unmarked) [Example 12] | > 50000 | 400 to 800 |  |
| O=C1Nc2ccccc2C(c2ccccc2)=NC1Nc1nnc(-c2ccc(Cl)cc2)o1 (centres unmarked) [Example 13] | > 50000 | < 400 |  |
| COc1cc(-c2nnc(NC3N=C(c4ccccc4)c4ccccc4NC3=O)o2)ccc1F (centres unmarked) [Example 14] | 10000 to 50000 | < 400 |  |
| CC(C)Oc1cccc(-c2nnc(NC3N=C(c4ccccc4)c4ccccc4NC3=O)o2)c1 (centres unmarked) [Example 15] | > 50000 | 400 to 800 |  |
| O=C1Nc2ccccc2C(c2ccccc2)=NC1Nc1nnc(-c2ccc3ccccc3c2)o1 (centres unmarked) [Example 16] | > 50000 | 400 to 800 |  |
| O=C1Nc2ccccc2C(c2ccccc2)=NC1Nc1nnc(-c2cccc3ccccc23)o1 (centres unmarked) [Example 17] | > 50000 | > 800 |  |
| Cc1nnc(NC2N=C(c3ccccc3)c3ccccc3NC2=O)o1 (centres unmarked) [Example 18] | > 50000 | > 800 |  |
| Cc1ccc(-c2nnc(NC3N=C(c4ccccc4)c4ccccc4NC3=O)o2)s1 (centres unmarked) [Example 19] | > 50000 | > 800 |  |
| O=C1Nc2ccccc2C(c2ccccc2)=NC1Nc1nnc(-c2ccc(Cl)o2)o1 (centres unmarked) [Example 20] | > 50000 | > 800 |  |
| O=C1Nc2ccccc2C(c2ccccc2)=NC1Nc1nnc(C2CCOCC2)o1 (centres unmarked) [Example 21] | > 50000 | > 800 |  |
| O=C1Nc2ccccc2C(c2ccccc2)=NC1Nc1nnc(Cc2ccccc2)o1 (centres unmarked) [Example 22] | > 50000 | > 800 |  |
| O=C1Nc2ccccc2C(c2ccccc2)=NC1Nc1nnc(-c2ccc(F)cn2)o1 (centres unmarked) [Example 23] | > 50000 | > 800 |  |
| O=C1Nc2ccccc2C(c2ccccc2)=NC1Nc1nnc(-c2ccc(C(F)(F)F)cn2)o1 (centres unmarked) [Example 25] | > 50000 | > 800 |  |

| SMILES | CC50 at 5 days [1] [nM] | EC50 [2, 3] [nM] | EC50 [2, 4] [nM] |
| --- | --- | --- | --- |
| Cc1cccc(-c2nnc(NC3N=C(c4ccccc4)c4ccccc4NC3=O)o2)n1 (centres unmarked) [Example 26] | > 50000 | > 800 |  |
| CS(=O)(=O)c1ccc(-c2nnc(NC3N=C(c4ccccc4)c4ccccc4NC3=O)o2)cc1 (centres unmarked) [Example 27] | > 50000 | > 800 |  |
| O=C1Nc2ccccc2C(c2ccccc2)=NC1Nc1nnc(-c2ccc(C(F)(F)F)cc2)o1 (centres unmarked) [Example 28] | > 50000 | > 800 |  |
| O=C1Nc2ccccc2C(c2ccccc2)=NC1Nc1nnc(-c2cccc(C(F)(F)F)c2)o1 (centres unmarked) [Example 29] | > 50000 | > 800 |  |
| O=C1Nc2ccccc2C(c2ccccc2)=NC1Nc1nnc(-c2ccc(OC(F)(F)F)cc2)o1 (centres unmarked) [Example 30] | > 50000 | > 800 |  |
| NS(=O)(=O)c1ccc(-c2nnc(NC3N=C(c4ccccc4)c4ccccc4NC3=O)o2)cc1 (centres unmarked) [Example 31] | > 50000 | 400 to 800 |  |
| N#Cc1cc(-c2nnc(NC3N=C(c4ccccc4)c4ccccc4NC3=O)o2)ccc1F (centres unmarked) [Example 32] | > 50000 | 400 to 800 |  |
| N#Cc1ccc(-c2nnc(NC3N=C(c4ccccc4)c4ccccc4NC3=O)o2)cc1F (centres unmarked) [Example 33] | > 50000 | > 800 |  |
| Cc1cc(-c2nnc(NC3N=C(c4ccccc4)c4ccccc4NC3=O)o2)ccc1C#N (centres unmarked) [Example 34] | > 50000 | 400 to 800 |  |
| N#Cc1cccc(-c2nnc(NC3N=C(c4ccccc4)c4ccccc4NC3=O)o2)c1 (centres unmarked) [Example 35] | > 50000 | > 800 |  |
| O=C1Nc2ccccc2C(c2ccccc2)=NC1Nc1nnc(-c2ccc(-n3cccn3)cc2)o1 (centres unmarked) [Example 36] | 10000 to 50000 | 400 to 800 |  |
| O=C1Nc2ccccc2C(c2ccccc2)=NC1Nc1nnc(-c2cccnc2)o1 (centres unmarked) [Example 37] | > 50000 | > 800 |  |
| N#Cc1cc(-c2nnc(NC3N=C(c4ccccc4)c4ccccc4NC3=O)o2)ccn1 (centres unmarked) [Example 38] | > 50000 | > 800 |  |
| O=C1Nc2ccccc2C(c2ccccc2)=NC1Nc1nnc(-c2ccc(=O)[nH]c2)o1 (centres unmarked) [Example 39] | > 50000 | > 800 |  |
| O=C1Nc2ccccc2C(c2ccccc2)=NC1Nc1nnc(-c2cc[nH]c(=O)c2)o1 (centres unmarked) [Example 40] | > 50000 | > 800 |  |
| O=C1Nc2ccccc2C(c2ccccc2)=N[C@@H]1Nc1nnc(-c2oc3cccc(F)c3c2N2CCOCC2)o1 [Example 477] |  | < 400 |  |
| CC1(c2nc(-c3nnc(N[C@H]4N=C(c5ccccc5)c5ccccc5NC4=O)o3)c(N3CCOCC3)s2)CCC1 [Example 478] |  | < 400 |  |
| COCCCc1sc(C)nc1-c1nnc(N[C@H]2N=C(c3ccccc3)c3ccccc3NC2=O)o1 [Example 479] |  | > 800 |  |
| COC[C@@H]1C[C@H]1c1cc(C(F)(F)F)cnc1-c1nnc(N[C@@H]2N=C(c3ccccc3)c3ccccc3NC2=O)o1 [Example 481] |  |  | > 800 |
| COC[C@H]1C[C@@H]1c1cc(C(F)(F)F)cnc1-c1nnc(N[C@H]2N=C(c3ccccc3)c3ccccc3NC2=O)o1 [Example 482] |  |  | > 800 |
| COC[C@H]1C[C@@H]1c1cc(C(F)(F)F)cnc1-c1nnc(N[C@@H]2N=C(c3ccccc3)c3ccccc3NC2=O)o1 [Example 483] |  |  | > 800 |
| O=C1Nc2ccccc2C(c2ccccc2)=N[C@@H]1Nc1nnc(-c2cn(CC(F)(F)F)nc2N2CCOCC2)o1 [Example 488] |  |  | < 400 |
| O=C1Nc2ccccc2C(c2ccccc2)=N[C@H]1Nc1nnc(-c2cn(CC(F)(F)F)nc2N2CCOCC2)o1 [Example 489] |  |  | > 800 |
| O=C1Nc2ccccc2C(c2ccccc2)=N[C@@H]1Nc1nnc(-c2nc(C3(C(F)(F)F)CCC3)sc2N2CCOCC2)o1 [Example 490] |  | < 400 |  |
